# In patent US20150126507A1, “COMPOUNDS TO TREAT HEARING LOSS” (Fate Therapeutics, Inc., priority 2013, published 2015):
# “Also recorded” adds a separate entry of the source.
# Legend:
# Type in all cases: cell-based
# Atoh1 reporter cell line = assay: Transcriptional profiling of Atoh1 reporter cell line by gene profiling microarray; settings: 5 μM, 2 days, vs DMSO
# Procedure: FIG. 5. An Atoh1 reporter cell line was treated with 5 μM Compound 4 or DMSO for 2 days. Gene expression was measured with a gene profiling microarray and plotted.
# In an attempt to identify the signaling pathway by which Compound 4 induces Atoh1 expression, transcriptional profiling of the Atoh1 reporter cell line was compared after treatment with Compound 4 or DMSO control. The Atoh1 reporter cell line was treated with 5 μM or Compound 4 or DMSO for 2 days. […] An upregulation of endogenous Atoh1 with Compound 4 treatment in the reporter line was not observed, presumably because the overexpressed reporter sequence outcompeted the native Atoh1 regulatory domain. […] See, e.g., Martinez, et al., Toxicol. Sci. 82:429-435, (2004); Ito, et al., J. Immunotoxicol. 3(1):21-30 (2006); and Sun, et al., Nucleic Acids Res. 32(15):4512-4523 (2004). […] See, e.g., Qian, et al., J. Immunol. 166:2553-2561 (2001) and Kimura, et al., Biochem. Biophys. Res. Comm. 264:86-92 (1999).
# [1] = tested on: Atoh1 expression in P5 rat cochlear explants; assay: Cochlear explant assay, Atoh1 expression by qRT-PCR after tobramycin pretreatment; settings: 1 mM tobramycin pretreatment, then compound vs DMSO
# Procedure: FIG. 3. Postnatal day 5 rat cochleae were cultured for 2 days with 1 mM tobramycin and then 3 days with test compound or vehicle. Relative Atoh1 expression was measured by qRT-PCR. Results are expressed as average±S.D. for >7 individual cochleae per treatment group. * p<0.05, student's t-test.
# The ten selected hits of Example 43 were assayed for the ability to induce Atoh1 expression in primary cultured cochlear explants from the neonatal rat. Postnatal day 5 (P5) rat cochlear explants were cultured with the ototoxic aminoglycoside antibiotic, tobramycin (1 mM), for 3 days prior to drug testing, as an in vitro model of drug-induced hearing loss. […] See, e.g., Ruedi, et al., Larynoscope 62:333-357 (1952). After the 3 day tobramycin pretreatment, the cochlear explants were cultured with the compounds of Example 43 or DMSO vehicle for an additional 2 days. Atoh1 expression levels, measured by qRT-PCR and normalized to ribosomal 18S expression, after hit compound treatments are shown in FIG. 3.
# [2] = tested on: Atoh1 enhancer reporter in HEK293 cells; assay: Atoh1 reporter cell line, firefly luciferase normalized to renilla luciferase; settings: Homo sapiens, HEK293, 48 h, Atoh1 reporter HEK293 cells, treated 2 days, dose response; read-out: ED50 (the source's name)
# Procedure: FIG. 2. Dose response data for selected hits. Atoh1 reporter cells plated in 384 well plates were treated with test compounds or vehicle controls for 2 days. Firefly luciferase signal was measured and normalized to the renilla luciferase signal. Results from duplicate wells (circles and triangles) are expressed relative to normalized controls treated with DMSO.
# A reporter cell line expressed in HEK293 cells in which Atoh1 enhancer elements flanked a minimal promoter driving firefly luciferase expression was created. Dose response data was generated in the reporter cell line. Atoh1 reporter cells plated in […] plates were treated with test compounds or vehicle controls for 2 days. Firefly luciferase signal was measured and normalized to the renilla luciferase signal.
# For high-throughput screening, HEK293 cells were transduced with a lentiviral vector containing a concatamer of Atoh1 enhancer A and B elements, the Promega minP minimal promoter, firefly luciferase coding sequence and hygromycin selectable marker. After selection, the cells were transduced with a second lentiviral vector containing the EF1α constitutive promoter, Renilla luciferase and puromycin selectable marker. A clonal derivative expressing both transgenes was expanded and banked for screening.
# A screening assay was done by plating 8000 cells/well in 384 well plates, and treating for 48 hours with 1 and 10 μM test compound in DMSO, vehicle control, or the GSK-3B inhibitor, BIO, as a positive control. Firefly and Renilla luciferase were measured sequentially using Dual-Glo (Promega) with an Envision multi-label plate reader (Perkin Elmer). Data were analyzed after normalizing firefly luciferase signals to Renilla luciferase signals. A primary screen of 50,000 diverse compounds identified 140 hits. […] 10 of these 41 hits were selected for further analysis
# To confirm activity in the 10 selected hits, the test compounds were reassayed at 3.3×10^−9, 1×10^−8, 3.3×10^−8, 1×10^−7, 3.3×10^−7, 1×10^−6, 3.3×10^−6 and 1×10^−5 molar concentrations. […] Results from duplicate wells (circles and triangles) are expressed relative to normalized controls treated with DMSO.
# [3] = tested on: Atoh1-GFP mouse cochlear explants; assay: Atoh1-GFP reporter mouse cochlear explants, confocal imaging and immunostaining; settings: 40 μM, 3 days
# Procedure: FIG. 4. Confocal images of E13 and P0 Atoh1-GFP mouse cochlear explants cultured for 3 days in 40 μM Compound 4 or DMSO and immunostained with antibodies against the supporting cell marker Sox2 (red), the hair cell marker MyosinVIIa (Myo7a, blue) and an anti-GFP antibody (green). […] Scale bars: A and B (50 μm); C and E (500 μm); D and F (25 μm).
# To identify which cells expressed Atoh1 after hit compound treatment, we utilized cochlear explants from embryonic and postnatal Atoh1-GFP reporter mice. See, e.g., Lumpkin, et al., Gene Expression Patterns 3:389-395 (2003). Both embryonic and neonatal cochleae were used in order to identify if there was a temporal window in which tissue was more responsive to drug treatment.
# [4] = P0 Atoh1-GFP mouse cochlear explants
compound,measurement,setting,value
Cc1c(C(=O)Nc2nccs2)oc2ccccc12 [Compound 4],"upregulation of annotated genes (EGR1, SCIN, CYP1A1, CYP1B1, TACT, MAFF)",Atoh1 reporter cell line,greater than 3 fold
same,upregulation of endogenous Atoh1,Atoh1 reporter cell line,not observed
same,Atoh1 expression by qRT-PCR normalized to ribosomal 18S,[1],largest stimulation of Atoh1 expression
same,EC50,[2],1300 nM
same,averaged total length of the organ of Corti vs DMSO,[3]; Atoh1-GFP mouse cochlear explants,no difference
same,GFP+ hair cells in E13 explants vs DMSO control,[3]; E13 Atoh1-GFP mouse cochlear explants,greater number of GFP-positive hair cells; also recorded: increase in GFP+ hair cells
same,GFP+ hair cells with Sox2+ nuclei in P0 explants,[3]; [4],numerous ectopic GFP+ hair cells with weak nuclear Sox2 expression; also recorded: numerous GFP+/MyosinVIIa+ cells were observed to have Sox2+ nuclei
same,GFP-positive hair cell domain in P0 explants vs DMSO control,[3]; [4],expansion in the GFP+ hair cell domain; also recorded: expansion of the GFP-positive hair cell domain
